Source: PubChem BioAssay AID330 (DTP/NCI, 2004)
Where “and” joins values, the source holds several entries; their conditions need not be identical. Equal entries are not always repeated. Toxic doses and inconclusive results are not listed. The calls were made as follows: active = survival T/C of 150% or more; inactive = T/C below 125% in these data.

Test system: P388 leukemia ip, CD2F1 mice, survival T/C
Assay: NCI In Vivo Anticancer Drug Screen. Data for tumor model P388 Leukemia (intraperitoneal) in CD2F1 (CDF1) mice
Conditions: endpoint: median survival time, higher = longer survival
Outline: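 Mice carrying the transplanted tumor received test compound or vehicle. Survival was recorded in each group, and the value is the treated-group measurement divided by that of the vehicle-treated control group.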

[1] = dose: 50.0 mg/kg/injection, schedule: Q01DX009 (ip), vehicle: saline
[2] = dose: 100.0 mg/kg/injection, schedule: Q01DX009 (ip), vehicle: saline
[3] = dose: 200.0 mg/kg/injection, schedule: Q01DX009 (ip), vehicle: saline
[4] = dose: 50.0 mg/kg/injection, schedule: Q01DX009 (ip), vehicle: saline with Tween-80
[5] = dose: 100.0 mg/kg/injection, schedule: Q01DX009 (ip), vehicle: saline with Tween-80
[6] = dose: 200.0 mg/kg/injection, schedule: Q01DX009 (ip), vehicle: saline with Tween-80
[7] = dose: 50.0 mg/kg/injection, schedule: Q01DX005 (ip), vehicle: saline with Tween-80
[8] = dose: 100.0 mg/kg/injection, schedule: Q01DX005 (ip), vehicle: saline with Tween-80
[9] = dose: 100.0 mg/kg/injection, schedule: Q04DX002 (ip), vehicle: saline with Tween-80
[10] = dose: 200.0 mg/kg/injection, schedule: Q04DX002 (ip), vehicle: saline with Tween-80
[11] = dose: 400.0 mg/kg/injection, schedule: Q04DX002 (ip), vehicle: saline with Tween-80

Measured: T/C

CC(C(=O)O)n1c(=O)ssc1=O (configuration not stated)
inactive: dose: 15.0 mg/kg/injection, schedule: Q01DX005 (ip), vehicle: Klucel (hydroxypropylcellulose) (HPC) 102 % of control | dose: 30.0 mg/kg/injection, schedule: Q01DX005 (ip), vehicle: Klucel (hydroxypropylcellulose) (HPC) 93 % of control | dose: 60.0 mg/kg/injection, schedule: Q01DX005 (ip), vehicle: Klucel (hydroxypropylcellulose) (HPC) 93 % of control

O=C(O)CS(=O)(=O)CCS(=O)(=O)CC(=O)O
inactive: [1] 107 % of control | [2] 105 % of control | [3] 88 % of control

CCOC(=O)N(O)c1ccc(C(N)=O)cc1
inactive: [4] 100 % of control | [5] 97 % of control | [6] 108 % of control

Cc1cccc(Cl)c1NC(=O)C(C)N1CCCC1 (configuration not stated)
inactive: dose: 12.5 mg/kg/injection, schedule: Q01DX009 (ip), vehicle: saline 100 % of control | dose: 25.0 mg/kg/injection, schedule: Q01DX009 (ip), vehicle: saline 90 % of control | [1] 109 % of control

c1ccc2c3c([nH]c2c1)CCc1cncnc1-3
inactive: dose: 50.0 mg/kg/injection, schedule: Q01DX005 (ip), vehicle: Klucel (hydroxypropylcellulose) (HPC) 91 % of control and 97 % of control | dose: 100.0 mg/kg/injection, schedule: Q01DX005 (ip), vehicle: Klucel (hydroxypropylcellulose) (HPC) 90 % of control and 103 % of control | dose: 200.0 mg/kg/injection, schedule: Q01DX005 (ip), vehicle: Klucel (hydroxypropylcellulose) (HPC) 99 % of control and 115 % of control

Cc1ccc(C)c(C(O)C2CC2)c1 (configuration not stated)
inactive: dose: 100.0 mg/kg/injection, schedule: Q04DX003 (ip), vehicle: saline with Tween-80 100 % of control | dose: 200.0 mg/kg/injection, schedule: Q04DX003 (ip), vehicle: saline with Tween-80 104 % of control

CCCN(CCC)CC(O)c1cc2cc(C(F)(F)F)cc(C(F)(F)F)c2c2cc(Cl)c(Cl)cc12 (configuration not stated)
inactive: dose: 6.25 mg/kg/injection, schedule: Q01DX009 (ip), vehicle: saline with Tween-80 102 % of control | dose: 12.5 mg/kg/injection, schedule: Q01DX009 (ip), vehicle: saline with Tween-80 101 % of control | dose: 25.0 mg/kg/injection, schedule: Q01DX009 (ip), vehicle: saline with Tween-80 94 % of control | [5] 91 % of control | [6] 91 % of control

CC(C)(F)C(N)C(=O)O (configuration not stated)
inactive: dose: 60.0 mg/kg/injection, schedule: Q01DX005 (ip), vehicle: saline 101 % of control | dose: 120.0 mg/kg/injection, schedule: Q01DX005 (ip), vehicle: saline 103 % of control | dose: 240.0 mg/kg/injection, schedule: Q01DX005 (ip), vehicle: saline 100 % of control

O=NNc1cccnc1
inactive: dose: 3.12 mg/kg/injection, schedule: Q01DX009 (ip), vehicle: water 108 % of control | dose: 6.25 mg/kg/injection, schedule: Q01DX009 (ip), vehicle: water 101 % of control and 105 % of control | dose: 12.5 mg/kg/injection, schedule: Q01DX009 (ip), vehicle: water 107 % of control and 110 % of control

COc1cccc(C(=O)CCN(C)C(=O)OCc2ccccc2)c1OCc1ccccc1
inactive: dose: 25.0 mg/kg/injection, schedule: Q01DX005 (ip), vehicle: saline with Tween-80 94 % of control | [7] 103 % of control | [8] 103 % of control

N#C/C(=C/c1cc(Br)c2c(c1)OCO2)C(N)=O
inactive: [9] 100 % of control | [10] 98 % of control | [11] 97 % of control

C(=N\NC1=NCCN1)/c1c[nH]c2ccccc12
inactive: [7] 101 % of control | [8] 97 % of control

CN(c1ccccc1)c1ccc([N+](=O)[O-])c2no[n+]([O-])c12
inactive: dose: 7.5 mg/kg/injection, schedule: Q01DX009 (ip), vehicle: suspension in saline 92 % of control and 97 % of control | dose: 15.0 mg/kg/injection, schedule: Q01DX009 (ip), vehicle: suspension in saline 92 % of control and 96 % of control | dose: 30.0 mg/kg/injection, schedule: Q01DX009 (ip), vehicle: suspension in saline 103 % of control and 90 % of control | dose: 60.0 mg/kg/injection, schedule: Q01DX009 (ip), vehicle: suspension in saline 110 % of control and 115 % of control

CCCCCCSCN(CC)CC
inactive: [1] 103 % of control | [2] 107 % of control | [3] 112 % of control

CCN(CC)CCCC(C)Nc1c2ccc(Cl)cc2nc2ccc(OC)cc12 (configuration not stated)
inactive: dose: 3.0 mg/kg/injection, schedule: Q03HX024 (ip), vehicle: saline with Tween-80 108 % of control | dose: 4.0 mg/kg/injection, schedule: Q01DX009 (ip), vehicle: suspension in saline 104 % of control | dose: 4.0 mg/kg/injection, schedule: Q#A X018 (ip), vehicle: saline with Tween-80 97 % of control | dose: 6.0 mg/kg/injection, schedule: Q03HX024 (ip), vehicle: saline with Tween-80 93 % of control | dose: 8.0 mg/kg/injection, schedule: Q01DX009 (ip), vehicle: saline with Tween-80 104 % of control and 105 % of control | dose: 8.0 mg/kg/injection, schedule: Q01DX009 (ip), vehicle: suspension in saline 110 % of control | dose: 8.0 mg/kg/injection, schedule: Q#A X018 (ip), vehicle: saline with Tween-80 87 % of control | dose: 16.0 mg/kg/injection, schedule: Q01DX009 (ip), vehicle: saline with Tween-80 106 % of control and 120 % of control | dose: 16.0 mg/kg/injection, schedule: Q01DX009 (ip), vehicle: suspension in saline 108 % of control | dose: 16.0 mg/kg/injection, schedule: Q#A X018 (ip), vehicle: saline with Tween-80 91 % of control | dose: 20.0 mg/kg/injection, schedule: Q04DX003 (ip), vehicle: saline with Tween-80 100 % of control | dose: 24.0 mg/kg/injection, schedule: Q03HX024 (ip), vehicle: saline with Tween-80 108 % of control | dose: 24.0 mg/kg/injection, schedule: Q04DX003 (ip), vehicle: saline with Tween-80 97 % of control | dose: 32.0 mg/kg/injection, schedule: Q01DX009 (ip), vehicle: saline with Tween-80 117 % of control | dose: 32.0 mg/kg/injection, schedule: Q01DX009 (ip), vehicle: suspension in saline 113 % of control | dose: 32.0 mg/kg/injection, schedule: Q#A X018 (ip), vehicle: saline with Tween-80 104 % of control | dose: 40.0 mg/kg/injection, schedule: Q04DX003 (ip), vehicle: saline with Tween-80 100 % of control | dose: 48.0 mg/kg/injection, schedule: Q04DX003 (ip), vehicle: saline with Tween-80 97 % of control | dose: 64.0 mg/kg/injection, schedule: Q01DX009 (ip), vehicle: suspension in saline 113 % of control | dose: 71.0 mg/kg/injection, schedule: Q01DX001 (ip), vehicle: saline with Tween-80 106 % of control | dose: 80.0 mg/kg/injection, schedule: Q04DX003 (ip), vehicle: saline with Tween-80 108 % of control | dose: 96.0 mg/kg/injection, schedule: Q04DX003 (ip), vehicle: saline with Tween-80 106 % of control | dose: 128.0 mg/kg/injection, schedule: Q01DX009 (ip), vehicle: saline with Tween-80 98 % of control | dose: 128.0 mg/kg/injection, schedule: Q01DX009 (ip), vehicle: suspension in saline 91 % of control | dose: 143.0 mg/kg/injection, schedule: Q01DX001 (ip), vehicle: saline with Tween-80 113 % of control

Cn1cnc2cc(Cl)c([N+](=O)[O-])cc2c1=O
inactive: dose: 100.0 mg/kg/injection, schedule: Q04DX002 (ip), vehicle: Klucel (hydroxypropylcellulose) (HPC) 102 % of control | dose: 200.0 mg/kg/injection, schedule: Q04DX002 (ip), vehicle: Klucel (hydroxypropylcellulose) (HPC) 110 % of control | dose: 400.0 mg/kg/injection, schedule: Q04DX002 (ip), vehicle: Klucel (hydroxypropylcellulose) (HPC) 102 % of control

CCCCN(N=O)C(C)=O
inactive: [9] 101 % of control | [10] 98 % of control

Cc1ccc(CC(=O)O)c2c1C(=O)CC2
inactive: dose: 12.5 mg/kg/injection, schedule: Q01DX009 (ip), vehicle: distilled water + Tween-80 92 % of control | dose: 25.0 mg/kg/injection, schedule: Q01DX009 (ip), vehicle: distilled water + Tween-80 90 % of control | dose: 50.0 mg/kg/injection, schedule: Q01DX009 (ip), vehicle: distilled water + Tween-80 90 % of control | dose: 100.0 mg/kg/injection, schedule: Q01DX009 (ip), vehicle: distilled water + Tween-80 90 % of control | dose: 200.0 mg/kg/injection, schedule: Q01DX009 (ip), vehicle: distilled water + Tween-80 90 % of control

Cc1ccc(-c2n[nH]c(=O)c(C#N)c2-c2ccc(C)cc2)cc1
inactive: [9] 88 % of control | [11] 88 % of control

COc1ccc(COCc2ccc(OC)c(O)c2)cc1O
inactive: [4] 101 % of control | [5] 99 % of control
